# Measured values taken from publication PMC3585277, “The C-Terminal Region Mesd Peptide Mimics Full-Length Mesd and Acts as an Inhibitor of Wnt/β-Catenin Signaling in Cancer Cells” (PLoS ONE, 2013).
# Tests used:
# HS578T cells [1] = test: Cell viability, Cell Titer Glo Assay, HS578T cells; type: cell-based, human
# Description: (§1) Cell viability was measured in 96-well plates by the Cell Titer Glo Assay (Promega), which is a luminescent assay that is an indicator of live cells as a function of metabolic activity and ATP content.
# Wnt/β-catenin signaling [2] = test: Super8XTOPFlash luciferase reporter assay, HEK293 cells (Figure S1, S2); type: cell-based, human; conditions: 24 h, peptide 8 µM in Figure S1
# Description: (§2) Cells were plated into 24-well plates. After overnight culture, the cells were transiently transfected with the TOPFlash or Super8XTOPFlash luciferase construct, β-galactosidase-expressing vector, and pcDNA3.1C-Myc-hLRP5, pCS-Myc-hLRP6 or control vector. After 24 h incubation, cells were treated with Mesd, Mesd peptide, Rspo1 and Wnt3A CM. Cells were then lysed 24 h later and both luciferase and β-galactosidase activities were determined. The luciferase activity was normalized to the β-galactosidase activity.
# Supplementary file pone.0058102.s001.tif: Figure S1 Human Mesd C-terminal region peptide blocks Wnt/β-catenin signaling induced by LRP6, Wnt3A and Rspo1 in HEK293 cells. […] The luciferase activity was then measured 24 h later with normalization to the activity of the β-galactosidase. […]
# Supplementary file pone.0058102.s002.tif: Figure S2 Mesd blocks Wnt1- or Wnt10b-induced Wnt/β-catenin signaling in HEK293 cells. […] The luciferase activity was then measured 24 h later with normalization to the activity of the β-galactosidase. […] The levels of cytosolic free β-catenin, and total cellular Wnt1, Wnt10b, β-catenin, LRP6, Axin2, cyclin D1 and phosphorylated LRP6 were then analyzed by Western blotting. […]
# Wnt/β-catenin signaling [3] = test: Super8XTOPFlash luciferase reporter assay, HS578T cells; type: cell-based, human; conditions: 24 h treatment
# Description: as §2
# HS578T cells [4] = test: Cell proliferation assay (trypan blue exclusion), HS578T cells; type: cell-based, human; conditions: DMEM 2% FBS, 10 days, mMesd 2 µM, hMesd (160–197) 4 µM, control peptide 4 µM, n = 3
# Description: (§3) Cells were seeded into 6-well plates at a density of 10000 cells/well. RPMI-1640 or DMEM medium containing 2% FBS was used as assay media. After 16 h incubation, the cells were treated with Mesd or its peptide for 10 days. Media were changed every other day. At the end of the experiment, cells were harvested and counted using the trypan blue exclusion assay.
# PC-3 cells [5] = test: Cell viability, Cell Titer Glo Assay, PC-3 cells; type: cell-based, human; conditions: Mesd 2 µM or hMesd (160–197) 2 µM with Adriamycin 0.5 µM, 2 days after pre-treatment
# Description: as §1
# Wnt/β-catenin signaling [6] = test: Western blot / GST-E-cadherin binding assay of Wnt/β-catenin signaling markers, PC-3 cells; type: cell-based, human
# Description: (§4) Cells in 6-well plates were lysed in 0.5 ml of lysis buffer (phosphate-buffered saline containing 1% Triton X-100 and 1 mM PMSF) at 4°C for 10 min. Equal quantities of protein were subjected to SDS-PAGE under reducing conditions. Following transfer to immobilon-P transfer membrane, successive incubations with anti-HA, anti-Wnt10b, anti-β-catenin, anti-OPG, anti-phosphorylated-LRP6, anti-LRP6, anti-Axin2, anti-Cyclin D1 or anti-actin, and horseradish peroxidase-conjugated secondary antibody were carried out for 60–120 min at room temperature. The immunoreactive proteins were then detected using the ECL system. Films showing immunoreactive bands were scanned by Kodak Digital Science DC120 Zoom Digital Camera.
# (§5) The GST-E-cadherin binding assay was carried out exactly as previously described (9). Uncomplexed cytosolic free β-catenin present in 100 µg of total cell lysate was subjected to SDS-PAGE and detected using the monoclonal antibody to β-catenin.
# PC-3 cells [7] = test: Cell proliferation assay (trypan blue exclusion), PC-3 cells; type: cell-based, human; conditions: PC-3, RPMI-1640 2% FBS, 10 days; mMesd 2 µM, hMesd (160–197) 4 µM, control peptide 4 µM; n = 3
# Description: as §3
# Wnt/β-catenin signaling [8] = test: Super8XTOPFlash luciferase reporter assay, PC-3 cells; type: cell-based, human; conditions: 24 h treatment
# Description: as §2
# Wnt/β-catenin signaling [9] = test: Western blot / GST-E-cadherin binding assay of Wnt/β-catenin signaling markers, HS578T cells; type: cell-based, human; conditions: 24 h treatment
# Description: as §4, §5
# PC-3 cells [10] = test: BrdU proliferation ELISA, PC-3 cells; type: cell-based, human; conditions: PC-3, peptide 2 µM, 7 days in 2% FBS then 2 days in 10% FBS; n = 6
# Description: (§6) BrdU incorporation into proliferating cells was analyzed by a cell proliferation ELISA BrdU kit (colorimetric, Roche) according to the manufacturer's instructions.
# HS578T cells [11] = test: BrdU proliferation ELISA, HS578T cells; type: cell-based, human; conditions: peptide 2 µM, 7 days in 2% FBS then 2 days in 10% FBS, n = 6
# Description: as §6
# MDA-MB-231 tumor = conditions: cited from earlier work
# LRP5 = test: 125I-Mesd ligand binding assay, LRP5-transfected ldl-7 cells; conditions: for block of Mesd protein binding to LRP5 at the cell surface / concentration at which inhibitory ability on Mesd binding was displayed: 4 h at 4°C; for concentration at which inhibitory ability on Mesd binding was displayed / inhibitory concentration relative to that required for mMesd (155–191): LRP5-expressing cells
# Description: (§7) Ligand binding assay was carried out exactly as previously described. Cells (2×10^5) were seeded into 12-well dishes 1 day prior to assay. Ligand-binding buffer (minimal Eagle's medium containing 0.6% BSA with a different concentration of radioligand, 0.6 ml/well) was added to cell monolayers, in the absence or the presence of unlabeled Mesd or its peptide, followed by incubation for 4 h at 4°C. Thereafter, overlying buffer containing unbound ligand was removed, and cell monolayers were washed and lysed in low-SDS lysis buffer (62.5 mM Tris-HCl pH 6.8, 0.2% SDS, 10% v/glycerol) and counted.
# LRP6 = test: 125I-Mesd ligand binding assay, LRP6-transduced HT1080 cells; set-up: species or system human; conditions: for block of Mesd protein binding to LRP6 at the cell surface / concentration at which inhibitory ability on Mesd binding was displayed: 125I-Mesd 5 nM, 4 h at 4°C; for block of Mesd protein binding to LRP6 at the cell surface: LRP6-transduced HT1080 cells; for concentration at which inhibitory ability on Mesd binding was displayed / inhibitory concentration relative to that required for mMesd (155–191): LRP6-expressing cells
# Description: as §7
# Wnt/β-catenin signaling [12] = test: TOPFlash luciferase reporter assay, LRP5-transfected HEK293 cells; type: cell-based, human; conditions: Wnt3A CM 5%, Rspo1 40 ng/ml, mMesd 2 µM, peptide at indicated concentrations, 24 h, normalized to β-galactosidase
# Description: as §2
# OPG expression = test: Western blot of OPG expression in C2C12 cells; type: cell-based, mouse; conditions: 48 h, mMesd 0.5 µM
# Description: as §4
# Wnt/β-catenin signaling [13] = test: TOPFlash luciferase reporter assay, LRP6-transfected HEK293 cells; type: cell-based, human; conditions: Wnt3A CM 5%, Rspo1 40 ng/ml, mMesd 2 µM, peptide at indicated concentrations, 24 h, normalized to β-galactosidase
# Description: as §2
# LRP6 phosphorylation = test: Western blot of phosphorylated LRP6 in C2C12 cells; type: cell-based, mouse; conditions: C2C12, Wnt3A CM 5%, 6 h; mMesd 0.5 µM, peptide at indicated concentrations
# Description: as §4
# [14] = 125I-Mesd 5 nM, peptides at indicated concentrations, LRP5-transfected ldl-7 cells, Figure 1C
# [15] = peptides at indicated concentrations, Figure 1C
compound,measurement,setting,value
"COc1cccc2c1C(=O)c1c(O)c3c(c(O)c1C2=O)C[C@@](O)(C(=O)CO)C[C@@H]3O[C@H]1C[C@H](N)[C@H](O)[C@H](C)O1 [Adriamycin, reference compound]",inhibition of cell viability,"HS578T cells [1]; single agent: Mesd protein 2 µM or Adriamycin 0.5 µM, Mesd 4 days pre-treatment, then 2 days, n = 4",69%
"KGGGSKEKNKTKQDKGKKKKEGDLKSRSSKEENRAGNK [hMesd (160–197), human Mesd C-terminal region peptide, corresponding to mMesd (155–191)]","Wnt/β-catenin signaling induced by LRP6, Wnt3A, Rspo1, Wnt1 and Wnt10b",Wnt/β-catenin signaling [2],displayed inhibitory effects
same,Wnt reporter luciferase activity induced by Wnt1,Wnt/β-catenin signaling [3]; HS578T transfected with Wnt1 plasmid,significantly repress
same,Wnt reporter luciferase activity,"Wnt/β-catenin signaling [3]; HS578T, endogenous signaling, indicated concentrations",significantly repressed
same,cell proliferation,HS578T cells [4],displayed inhibitory effect
same,Adriamycin-induced cytotoxicity,PC-3 cells [5],potentiate
same,Adriamycin-induced cytotoxicity,"HS578T cells [1]; Mesd 2 µM or hMesd (160–197) 2 µM with Adriamycin 0.5 µM, 2 days after pre-treatment",potentiate
same,"levels of cytosolic free β-catenin, LRP6 phosphorylation, Axin2 and cyclin D1","Wnt/β-catenin signaling [6]; PC-3, 24 h treatment",greatly decreased
same,"levels of cytosolic free β-catenin, LRP6 phosphorylation, Axin2 and cyclin D1","Wnt/β-catenin signaling [6]; Wnt1-expressing PC-3, 24 h treatment",greatly decreased
same,cell proliferation,PC-3 cells [7],displayed inhibitory effect
same,Wnt reporter luciferase activity,"Wnt/β-catenin signaling [8]; PC-3, endogenous signaling, indicated concentrations",significantly repressed
same,Wnt reporter luciferase activity induced by Wnt1,Wnt/β-catenin signaling [8]; PC-3 transfected with Wnt1 plasmid,significantly repress
same,"levels of cytosolic free β-catenin, LRP6 phosphorylation, Axin2 and cyclin D1",Wnt/β-catenin signaling [9]; HS578T,greatly decreased
same,"levels of cytosolic free β-catenin, LRP6 phosphorylation, Axin2 and cyclin D1",Wnt/β-catenin signaling [9]; Wnt1-expressing HS578T,greatly decreased
Mesd C-terminal region peptide: generic wording; in Figure 7B it is hMesd (160–197); in cited work (ref 13) the peptide is not specified (KGGGSKEKNKTKQDKGKKKKEGDLKSRSSKEENRAGNK),BrdU incorporation,PC-3 cells [10],decreased BrdU incorporation
same,BrdU incorporation,HS578T cells [11],decreased BrdU incorporation
same,MDA-MB-231 tumor growth,MDA-MB-231 tumor,suppressed
mMesd (155–164): Mesd peptide based on the mouse Mesd C-terminal region sequence,block of Mesd protein binding to LRP5 at the cell surface,LRP5; [14],unable to block
same,block of Mesd protein binding to LRP6 at the cell surface,LRP6; [15],unable to block
"mMesd (155–173): Mesd peptide based on the mouse Mesd C-terminal region sequence (GSYAWEIKDFLVSQDRCAE; UniProt Q9ERE7 155-173, looked up, fragment)",block of Mesd protein binding to LRP5 at the cell surface,LRP5; [14],inhibition
same,block of Mesd protein binding to LRP6 at the cell surface,LRP6; [15],inhibition
"mMesd (155–191): shorter mouse Mesd C-terminal region peptide lacking 9 conserved terminal residues of mMesd (150–195) (GSYAWEIKDFLVSQDRCAEVTLEGQMYPGKGGGSKEK; UniProt Q9ERE7 155-191, looked up, fragment)","TOPFlash activity induced by LRP5, LRP5 plus Wnt3A, LRP5 plus Rspo1",Wnt/β-catenin signaling [12],blocked
same,OPG expression induced by Rspo1 plus Wnt3A,"OPG expression; C2C12, Rspo1 20 ng/ml, Wnt3A CM 2%, mMesd (155–191) 2 µM",repressed
same,Wnt3A-induced OPG expression,"OPG expression; C2C12, Wnt3A CM 5%, peptide at indicated concentrations",able to suppress
same,"TOPFlash activity induced by LRP6, LRP6 plus Wnt3A, LRP6 plus Rspo1",Wnt/β-catenin signaling [13],blocked
same,Wnt3A-induced endogenous LRP6 phosphorylation,LRP6 phosphorylation,able to suppress
same,block of Mesd protein binding to LRP5 at the cell surface,LRP5; 125I-Mesd binding assay with LRP5-expressing cells,blocked
same,block of Mesd protein binding to LRP6 at the cell surface,"LRP6; 500 nM peptide, Figure 1B, triple determinations",blocked
"mMesd (160–169): Mesd peptide based on the mouse Mesd C-terminal region sequence (EIKDFLVSQD; UniProt Q9ERE7 160-169, looked up, fragment)",concentration at which inhibitory ability on Mesd binding was displayed,LRP5; 125I-Mesd 5 nM,50 µM
same,inhibitory concentration relative to that required for mMesd (155–191),LRP5,100 times
same,concentration at which inhibitory ability on Mesd binding was displayed,LRP6,50 µM
same,inhibitory concentration relative to that required for mMesd (155–191),LRP6,100 times
"mMesd (165–182): Mesd peptide based on the mouse Mesd C-terminal region sequence (LVSQDRCAEVTLEGQMYP; UniProt Q9ERE7 165-182, looked up, fragment)",block of Mesd protein binding to LRP5 at the cell surface,LRP5; [14],unable to block
same,block of Mesd protein binding to LRP6 at the cell surface,LRP6; [15],unable to block
"mMesd (174–191): Mesd peptide based on the mouse Mesd C-terminal region sequence (VTLEGQMYPGKGGGSKEK; UniProt Q9ERE7 174-191, looked up, fragment)",block of Mesd protein binding to LRP5 at the cell surface,LRP5; [14],inhibition
same,block of Mesd protein binding to LRP6 at the cell surface,LRP6; [15],inhibition
"mMesd (183–191): Mesd peptide based on the mouse Mesd C-terminal region sequence (GKGGGSKEK; UniProt Q9ERE7 183-191, looked up, fragment)",concentration at which inhibitory ability on Mesd binding was displayed,LRP5; 125I-Mesd 5 nM,50 µM
same,inhibitory concentration relative to that required for mMesd (155–191),LRP5,100 times
same,concentration at which inhibitory ability on Mesd binding was displayed,LRP6,50 µM
same,inhibitory concentration relative to that required for mMesd (155–191),LRP6,100 times
